Experimental findings from US8207136B2, “Nucleoside compounds and methods of use thereof” (The Board of Trustees of the University of Illinois, priority 2005, dated 2012) are described below.

In one test the test system is p21 promoter. The test is described as follows: p21 promoter-lacZ reporter screen in LIM1215 colon carcinoma cells. The test is classed as cell-based, human. The conditions noted are these: 10 μM, 24 hours. As for the experimental part: LIM1215 colon carcinoma cells harboring the lacZ reporter gene under the control of a 2.3 kb p21 promoter (containing two p53 binding sites) were grown in 96-well plates. Diversity set, a chemical compound library containing approximately 2000 compounds (dissolved in DMSO), was obtained from the National Cancer Institute (NCI) and was used at a final concentration of 10 μM on the cells for 24 hours. lacZ encoded β-Gal was detected by X-Gal staining as described previously.
(§1) In order to find small molecule transcriptional inhibitors of p21, we generated LIM1215 colon cancer cells, carrying lacZ under the control of p21 promoter, as a screening system for testing ˜2000 structurally diverse compounds (Diversity Set) obtained from National Cancer Institute (NCI). […] To determine if these effects mediated by ARC were dose-dependent, we treated HCT-116 colon carcinoma cells with different concentrations of ARC.

For a further test, the system named is p53, p21, hdm2, survivin. Kind of test: Immunoblot of p53, p21, hdm2 and survivin levels in cancer cell lines. The test is classed as cell-based, human. As for the experimental part: (§2) Immunoblotting was performed as described with antibodies specific for p53 (sc-126 HRP; Santa Cruz), hdm2 (sc-965; Santa Cruz), p21 (556431; BD Pharmingen), Sp1 (sc-59; Santa Cruz), survivin (sc-10811; Santa Cruz), phospho RNA polymerase II (4735; Cell Signaling), total RNA polymerase II (8WG16; a gift from Dr. Schlegel, University of Illinois at Chicago), α-tubulin (T9026; Sigma), cleaved caspase-3 (9664; Cell Signaling), caspase-9 (9502; Cell Signaling) and β-actin (A5441; Sigma) antibodies.
as §1
In order to evaluate the extent to which the ARC-mediated repression of p21, hdm2 and survivin are p53-dependent, a pair of isogenic colon cancer cell lines was employed differing only in their p53 status—HCT-116 wild-type and HCT-116-p53^−/− cells (gift from Dr. Bert Vogelstein).
In general terms: A western blot detects proteins with antibodies after separation by electrophoresis.

Test [1] has as its system LIM1215 colon cancer, AGS gastric cancer and HepG2 liver cancer cells. Kind of test: Cleaved caspase-3 immunoblot in cancer cell lines of different origin. The test is classed as cell-based, human. The conditions noted are these: 48 hours. As to the method: as §2
Test [2] concerns leukemia cell lines CEM, HL-60, NB4 and U937. The test is described as follows: TMRE staining and flow cytometry of leukemia cells. The test is classed as cell-based. The conditions noted are these: 5 μM, 24 hours. As to the method: FIG. 7. ARC induces mitochondrial injury in leukemia cells. Different leukemia cells were either treated with DMSO (gray) or 5 μM ARC (white) for 24 hours, stained with TMRE (tetramethyl rhodamine ethyl ester) and subjected to flow cytometry. CEM cells are shown in panel (A), HL-60 in panel (B), NB4 in panel (C) and U937 in panel (D). The shift in the peak from right (DMSO; gray) to left (ARC-treated; white) is due to the lower intake of the dye caused by the loss in mitochondrial potential.
(§3) In order to further probe the mechanism of ARC-induced apoptosis, whether or not ARC causes mitochondrial injury was investigated. Permeabilization of mitochondria, followed by cytochrome c release has previously been observed for transcriptional inhibitor flavopiridol. For this analysis, leukemia cell lines CEM, HL-60, NB4 and U937 were treated with either DMSO or ARC. […] It is well known that the Bcl2 family members (eg., Bcl-2, Bcl-XL, Mcl-1) protect the mitochondrial integrity, thereby acting in an anti-apoptotic manner. It is possible that ARC modulates the expression of one or more of these proteins to cause mitochondrial injury.

The test system of a further test is Mcl-1, Bcl-2. Kind of test: Immunoblot of Bcl-2 and Mcl-1 levels. The test is classed as cell-based. As for the experimental part:
FIG. 8. ARC downregulates Mcl-1 levels in different cancer cells. (A) U937 leukemia cells were treated with different concentrations of ARC as indicated for 24 hours and the cell lysates were probed for Mcl-1 levels. (B) Neuroblastoma cell lines were treated either with DMSO or 1 μM ARC for 24 hours and levels of Mcl-1 were assessed by immunoblotting.
as §3

[3] abbreviates: cancer cell lines of different origin, 10 μM, 24 hours.

For `NNc1c(C(N)=O)c2c(N)ncnc2n1[C@@H]1O[C@H](CO)[C@@H](O)[C@H]1O` [ARC, 4-amino-6-hydrazino-7-beta-D-ribofuranosyl-7H-pyrrolo[2,3-d]-pyrimidine-5-carboxamide], the “p21 promoter driven β-Gal expression” value in the test with p21 promoter was “inhibit p21 promoter”. Moreover, the “p21, hdm2 and survivin levels, p53 dependence” value with p53, p21, hdm2, survivin (HCT-116-p53+/+ versus HCT-116-p53−/− cells) is “repressed irrespective of their p53 status”. In addition, the “p53, p21 and hdm2 levels, dose dependence” value in the test on p53, p21, hdm2, survivin (HCT-116 colon carcinoma cells, increasing amounts, 24 hours) was “increased p53 but simultaneously repressed its target genes p21 and hdm2 in a dose-dependent manner”. Also, the “p53 levels in nuclear extracts” value with p53, p21, hdm2, survivin (MCF-7 cells, ARC alone) is reported as “highly induced”. Further, in the test with p53, p21, hdm2, survivin (setting [3]), the hdm2 levels entry is recorded as “downregulate hdm2”, the p21 levels entry is on record as “repress p21 levels”, the p53 levels result is given as “increased p53 levels” and the survivin levels result is reported as “downregulate”. The “cleavage of caspase-3” value in test [1] (HepG2 with stable knock-down of p53, 20 μM) was “showed cleavage of caspase-3”. Further, in test [1] (LIM1215, AGS and HepG2 cells, 20 μM), the “cleavage of caspase-3” value was “cleavage of caspase-3 were detected”. Further, in test [2], the “mitochondrial potential (TMRE)” value is “mitochondrial depolarization”. Further, the Mcl-1 levels result in the test with Mcl-1, Bcl-2 (U937 leukemia and neuroblastoma cell lines, 24 hours) is “drastically reduced”. For the same molecule, in the test with Mcl-1, Bcl-2 (data not shown), the Bcl-2 levels result is “no changes in the levels of Bcl-2”.
